Like-named read-outs stand apart in the source and are kept apart here.
Legend:
[1] = target: mushroom tyrosinase; experiment: Mushroom tyrosinase inhibitory assay (L-tyrosine or L-DOPA as substrate); assay type: biochemical; details: for IC50: mean ± SEM of triplicate experiments; for tyrosinase inhibitory activity toward L-DOPA (in words): at any of the tested concentrations
Description: The reaction mixtures were keep warm at 37 °C for 20 min. The absorbance of the mixture at 492 nm was measured using a microplate reader. The tyrosinase inhibitory activity (%) was calculated as (1 − Abssample/Abscontrol) × 100%.

[2] = system: B16F10 melanoma cells; experiment: Melanin contents in α-MSH and IBMX-induced B16F10 melanoma cells; assay type: cell-based, murine; details: α-MSH (5 μM) and IBMX (200 μM), 48 h, α-MSH and IBMX alone 171.30%
Description: (§1) Murine melanoma B16F10 cells were purchased from the Korean Cell Line Bank (Seoul, Korea). The cells were cultured in DMEM containing 10% FBS and 1% streptomycin, and then incubated at 37 °C with 5% CO2. The melanoma cells were plated at 95% confluency for all the experiments.
Cellular melanin content was determined as described previously. Cells were seeded in six-well culture plates (Nunc, Denmark) at 2 × 10^5 cells/well for 24 h. […] Cells were washed twice with PBS. After centrifugation, cell pellets were disrupted in 100 μL of 1N NaOH, and incubated at 60 °C for 1 h and mixed to solubilize the melanin. Absorbance at 405 nm was compared with a standard curve for synthetic melanin (TECAN, Salzburg, Austria).

[3] = system: intracellular tyrosinase in B16F10 melanoma cells; experiment: Cellular tyrosinase activity assay in α-MSH and IBMX-induced B16F10 melanoma cells (L-DOPA oxidation); assay type: cell-based, murine; details: α-MSH (5 μM) and IBMX (200 μM), 48 h, α-MSH and IBMX alone 310.39%
Description: as §1
Intracellular tyrosinase inhibitory activity assay was achieved by measuring the rate of oxidation of L-DOPA [44]. Cells at a density of 1 × 10^5 cells/well were plated in 6-well plates (Nunc, Denmark) and incubated overnight. […] The cells were washed with PBS and lysed in a solution containing 100 µL of 50 mM phosphate buffer (pH 6.5), 0.1 mM phenylmethylsulfonylfluoride (PMSF), and 1% Triton X-100. The cells lysates were employed in a deep freezer (−80 °C) for 1 h. After defrosting the cell lysates, the cellular extracts were purified by centrifugation at 12,000 rpm for 30 min at 4 °C. A total of 80 µL of supernatant and 20 µL of L-DOPA (2 mg/mL) were added to a 96-well plate, and the absorbance at a wavelength of 492 nm was measured every 10 min during 1 h using an ELISA plate reader (TECAN, Salzburg, Austria). Total protein content was determined using BCA protein assay reagent (Thermo Scientific, Rockford, IL, USA).

[4] = system: B16F10 melanoma cells; experiment: Cell viability, EZ-Cytox assay; assay type: cell-based, murine; details: concentrations up to 100 μM, 48 h
Description: as §1
Cell viability was assessed with the EZ-Cytox assay kit (Daeillab Service, Seoul, Korea) as previously described. In brief, B16F10 cells were seeded in 96-well plates (Corning, NY, USA) at a density of 1 × 10^4 cells/well for 24 h. The cells were fed fresh, serum-free DMEM that contained different concentrations (up to 100 μM) of 1c, and incubated for 24 h or 48 h. Then, 10 μL EZ-Cytox solution was added to each well and the cells were incubated for 2–4 h. The absorbance of cells in the absence of treatment was regarded as 100% cell survival. […] Thus, CC50 value of 1c were calculated by regression analysis.

[5] = target: mushroom tyrosinase; experiment: Enzyme kinetic analysis in mushroom tyrosinase inhibition (Lineweaver-Burk and Dixon plots); assay type: biochemical; details: for Ki: Dixon plot; for Inhibition type: Lineweaver-Burk plot
Description: In order to estimate the kinetic mechanism, two kinetic methods using Lineweaver-Burk and Dixon plots were used. Using Lineweaver-Burk double reciprocal plots [a plot of 1/enzyme velocity (1/V) vs. 1/substrate concentration (1/[S])], the type of inhibition was determined using various concentrations of L-tyrosine (0.5, 1 and 2 mM) and L-DOPA (0.5, 1, and 2 mM), as substrates, in the absence and presence of various concentrations of 1c (3.2–80 nM; for L-tyrosine, 0.4–10 μM; for L-DOPA). […] The concentrations of 1c were as follows: 3.2–80 nM; for L-tyrosine, 0.4–10 μM; for L-DOPA. The enzymatic procedures comprised of the formerly described tyrosinase test methods. The inhibition constant (Ki) was resolute using Dixon plots.

[6] = substrate L-DOPA, read-out: IC50 (μM), L-DOPA as substrate (diphenolase / dopa oxidase)
[7] = substrate L-tyrosine, read-out: IC50 (μM), L-tyrosine as substrate (monophenolase / tyrosine hydroxylase)

SMILES | IC50 [1, 6] [µM] | IC50 [1, 7] [µM] | melting point [°C] | tyrosinase inhibitory activity toward L-DOPA (in words) ([1]; substrate L-DOPA) | further results
O=C(/C=C/c1ccc(O)cc1)c1cccs1 [1a, (E)-3-(4-Hydroxyphenyl)-1-(thiophen-2-yl)prop-2-en-1-one] | 60.1 ± 7.85 | 46.2 ± 0.55 | – | – | –
O=C(/C=C/c1ccc(O)c(O)c1)c1cccs1 [1b, (E)-3-(3,4-Dihydroxyphenyl)-1-(thiophen-2-yl)prop-2-en-1-one] | 103 ± 8.47 | 75.7 ± 2.46 | 182.5 to 185.7 | – | –
O=C(/C=C/c1ccc(O)cc1O)c1cccs1 [1c, (E)-3-(2,4-Dihydroxyphenyl)-1-(thiophen-2-yl)prop-2-en-1-one] | 0.93 ± 0.22 | – | – | – | melanin contents ([2]; 0.04 μM): 107.29%; melanin contents ([2]; 0.2 μM): 98.15%; melanin contents ([2]; 1 μM): 88.09%; intracellular tyrosinase activity ([3]; 0.04 μM): 225.78%; intracellular tyrosinase activity ([3]; 0.2 μM): 157.79%; intracellular tyrosinase activity ([3]; 1 μM): 132.71%; cytotoxicity (cell viability) [4]: did not show any cytotoxicity; Ki ([5]; substrate L-DOPA): 1.76 µM; Inhibition type ([5]; substrate L-DOPA): competitive inhibition; Ki ([5]; substrate L-tyrosine): 0.00501 µM; Inhibition type ([5]; substrate L-tyrosine): competitive inhibition
COc1cc(/C=C/C(=O)c2cccs2)ccc1O [1d, (E)-3-(4-Hydroxy-3-methoxyphenyl)-1-(thiophen-2-yl)prop-2-en-1-one] | > 200 | 98.8 ± 2.11 | 132.8 to 135.2 | did not inhibit tyrosinase activity | –
COc1ccc(/C=C/C(=O)c2cccs2)cc1O [1e, (E)-3-(3-Hydroxy-4-methoxyphenyl)-1-(thiophen-2-yl)prop-2-en-1-one] | 28.7 ± 1.98 | 17.4 ± 1.81 | – | – | –
COc1cc(/C=C/C(=O)c2cccs2)cc(OC)c1O [1f, (E)-3-(4-Hydroxy-3,5-dimethoxyphenyl)-1-(thiophen-2-yl)prop-2-en-1-one] | > 200 | 77.9 ± 8.74 | 143.6 to 147.3 | did not inhibit tyrosinase activity | –
O=C(/C=C/c1ccc(O)c(Br)c1)c1cccs1 [1g, (E)-3-(3-Bromo-4-hydroxyphenyl)-1-(thiophen-2-yl)prop-2-en-1-one] | 112 ± 14.3 | – | 195.2 to 199.6 | – | tyrosinase inhibitory activity toward L-tyrosine (in words) ([1]; substrate L-tyrosine): inactive
O=C(/C=C/c1cc(Br)c(O)c(Br)c1)c1cccs1 [1h, (E)-3-(3,5-Dibromo-4-hydroxyphenyl)-1-(thiophen-2-yl)prop-2-en-1-one] | > 200 | – | 269.3 to 272 | did not inhibit tyrosinase activity | tyrosinase inhibitory activity toward L-tyrosine (in words) ([1]; substrate L-tyrosine): inactive
O=c1cc(CO)occ1O [Kojic acid, kojic acid, reference compound] | – | – | – | – | melanin contents ([2]; 10 μM): 118.19%; intracellular tyrosinase activity ([3]; 10 μM): 225.54%

From publication PMC6222382, “A Potent Tyrosinase Inhibitor, (E)-3-(2,4-Dihydroxyphenyl)-1-(thiophen-2-yl)prop-2-en-1-one, with Anti-Melanogenesis Properties in α-MSH and IBMX-Induced B16F10 Melanoma Cells” (Molecules : A Journal of Synthetic Chemistry and Natural …, 2018)
